In patent US5935945A, “Methods of treating or preventing cardiac arrhythmia” (Merck & Co., Inc., priority 1997, dated 1999):
Read-outs that look alike come from different tables or passages of the source.

Columns and labels:
[1] = target: T1, IKr (rapidly activating delayed rectifier K^+ current) (Cavia porcellus, UniProt O08703); assay: Voltage-clamp measurement of IKr in guinea pig ventricular myocytes; type: cell-based; conditions: @ 3 μM; read-out: % Block (Guinea Pig Ventricle) IKr
T1 construct: Guinea pig ventricular myocytes were isolated; from tissue; host or cells: isolated guinea pig ventricular myocytes
T1 sequence (O08703 1-1294): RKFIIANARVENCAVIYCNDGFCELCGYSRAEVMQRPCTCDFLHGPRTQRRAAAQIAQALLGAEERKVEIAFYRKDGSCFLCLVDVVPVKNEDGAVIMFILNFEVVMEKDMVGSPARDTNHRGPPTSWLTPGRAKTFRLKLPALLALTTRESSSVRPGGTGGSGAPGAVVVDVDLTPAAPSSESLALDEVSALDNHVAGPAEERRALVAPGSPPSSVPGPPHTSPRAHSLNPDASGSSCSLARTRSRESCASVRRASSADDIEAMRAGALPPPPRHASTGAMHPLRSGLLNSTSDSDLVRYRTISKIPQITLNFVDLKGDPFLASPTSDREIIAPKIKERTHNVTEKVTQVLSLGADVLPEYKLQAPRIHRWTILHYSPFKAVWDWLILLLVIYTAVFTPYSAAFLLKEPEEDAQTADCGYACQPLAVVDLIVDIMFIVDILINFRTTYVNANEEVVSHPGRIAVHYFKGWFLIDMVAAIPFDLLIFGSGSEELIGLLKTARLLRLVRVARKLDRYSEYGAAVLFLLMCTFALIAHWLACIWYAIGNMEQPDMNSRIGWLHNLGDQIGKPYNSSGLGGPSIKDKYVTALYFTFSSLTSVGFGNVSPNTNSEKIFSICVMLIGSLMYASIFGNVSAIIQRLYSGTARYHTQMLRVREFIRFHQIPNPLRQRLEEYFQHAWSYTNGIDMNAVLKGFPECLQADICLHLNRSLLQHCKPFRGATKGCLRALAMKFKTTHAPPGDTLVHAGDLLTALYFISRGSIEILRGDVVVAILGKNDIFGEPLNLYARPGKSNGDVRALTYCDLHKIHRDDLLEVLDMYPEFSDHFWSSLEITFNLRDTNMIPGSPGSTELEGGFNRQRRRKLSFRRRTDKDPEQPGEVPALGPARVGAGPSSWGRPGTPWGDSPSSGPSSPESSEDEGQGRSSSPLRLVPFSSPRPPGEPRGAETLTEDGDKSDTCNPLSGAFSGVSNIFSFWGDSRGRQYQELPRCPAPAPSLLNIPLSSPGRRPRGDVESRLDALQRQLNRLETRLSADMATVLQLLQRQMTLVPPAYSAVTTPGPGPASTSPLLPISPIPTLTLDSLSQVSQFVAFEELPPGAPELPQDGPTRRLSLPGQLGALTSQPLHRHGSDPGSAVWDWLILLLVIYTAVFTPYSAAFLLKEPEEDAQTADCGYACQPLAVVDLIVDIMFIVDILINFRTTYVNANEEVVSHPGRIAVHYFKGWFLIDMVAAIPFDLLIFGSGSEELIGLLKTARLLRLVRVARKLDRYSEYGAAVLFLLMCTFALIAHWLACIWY
Description: (§1) Guinea pig ventricular myocytes were isolated using a modification of the procedure described by Mitra et al., Am. J. Physiol. 249:H1056-60 (1985). Excised hearts were perfused through the aorta (retrograde fashion) at a rate of 10 ml/min with oxygenated, warmed (37° C.) solutions described below. The heart was initially perfused for 7 minutes with a Tyrode's solution containing, (in mM): 132 NaCl, 4 KCl, 1.2 MgCl2, 10 HEPES, 5 glucose, pH=7.2. The heart was then perfused with the same nominally Ca^2+ -free solution containing 150 units/ml Type II collagenase (Worthington) and 0.5 units/ml Type XIV protease (Sigma) for 8 minutes. This perfusate was followed by a Tyrode's solution containing 0.2 mM CaCl2 (without enzymes) for 5 minutes. The digested ventricles were cut into small pieces and gently shaken until cells were visibly dispersed. The cells were stored at room temperature until use, within 8 hours after isolation.
(§2) The suction microelectrode technique described by Giles, W. R. and Shibata, E. F., "Voltage clamp of bull-frog cardiac pacemaker cells: a quantitative analysis of potassium currents", J. Physiol. 368:265-292 (1985) was used to voltage clamp the cells. Microelectrodes were made by using a two stage puller from square bore (1.0 mm o.d.) borosilicate capillary tubing. Pipettes were filled with 0.5 M K gluconate, 25 mM KCl and 5 mM K2 ATP. The electrodes had resistances of 3 to 7 M.OMEGA. when filled with this solution. After establishing whole-cell recording mode, negative pressure was maintained on the pipette using a 1 ml gas-tight syringe attached via air tight tubing to the suction port of the microelectrode holder. This minimized dialysis of the cell with the pipette solution.
(§3) To record K^+ currents, the cells were bathed in a Ca^2+ -free Tyrode's solution containing […]. […] To record Ca^2+ currents, the cells were bathed in Tyrode's solution containing 1.8 mM Ca^2+ without nisoldipine. The cell chamber was superfused with solutions at a rate of 1-2 ml/minute, while maintaining the temperature at 35±1° C. A List EPC-7 clamp amplifier was used to voltage clamp the isolated cells. […] (Sanguinetti M. C. and Jurkiewicz, N. K., "Two components of cardiac delayed rectifier K^+ current: Differential sensitivity to block by Class III antiarrhythmic agents", J. Gen Physiol 1990; 96:194-214.) Data was analyzed as % block from control membrane currents.
(§4) Nisoldipine was prepared as a 4 mM stock solution in polyethylene glycol 200. […] At the final concentrations used neither polyethylene glycol 200 nor dimethyl sulfoxide had any effect on any of the measured membrane currents.
(§5) Selectivity for block of cardiac K^+ channels, IK1, IKr, and IKs was determined as previously described in guinea pig ventricular myocytes (U.S. Pat. No. 5,428,031).

[2] = tested on: IK1 (inward rectifier K^+ current); assay: Voltage-clamp measurement of IK1 in guinea pig ventricular myocytes; type: cell-based; conditions: @ 3 μM
Description: as §1, §2, §3, §4, §5

[3] = target: T2, IKs (slowly activating delayed rectifier K^+ current) (Cavia porcellus, UniProt O70344); assay: Voltage-clamp measurement of IKs in guinea pig ventricular myocytes; type: cell-based; conditions: @ 3 μM; read-out: % Block (Guinea Pig Ventricle) IKs
T2 construct: Guinea pig ventricular myocytes were isolated; from tissue; host or cells: isolated guinea pig ventricular myocytes
T2 sequence (O70344 whole entry): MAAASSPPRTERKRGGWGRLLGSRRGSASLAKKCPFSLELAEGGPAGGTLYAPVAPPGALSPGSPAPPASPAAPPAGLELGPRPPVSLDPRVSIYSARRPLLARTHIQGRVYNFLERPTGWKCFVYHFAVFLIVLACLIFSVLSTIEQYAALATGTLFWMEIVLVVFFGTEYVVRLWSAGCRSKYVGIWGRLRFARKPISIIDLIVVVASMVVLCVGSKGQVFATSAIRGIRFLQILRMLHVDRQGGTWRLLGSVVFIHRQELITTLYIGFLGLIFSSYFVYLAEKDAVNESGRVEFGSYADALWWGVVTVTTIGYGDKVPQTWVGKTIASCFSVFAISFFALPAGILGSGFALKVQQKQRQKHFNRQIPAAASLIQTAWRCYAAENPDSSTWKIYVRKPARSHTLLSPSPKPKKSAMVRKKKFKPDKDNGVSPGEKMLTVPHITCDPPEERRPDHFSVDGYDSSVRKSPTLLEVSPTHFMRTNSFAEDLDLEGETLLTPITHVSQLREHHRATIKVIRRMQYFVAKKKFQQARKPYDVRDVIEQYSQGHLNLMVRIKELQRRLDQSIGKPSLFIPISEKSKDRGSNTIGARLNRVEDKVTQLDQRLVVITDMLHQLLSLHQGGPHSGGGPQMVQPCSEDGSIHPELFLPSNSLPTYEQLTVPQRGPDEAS
T2 sequence (Q60409 whole entry partner): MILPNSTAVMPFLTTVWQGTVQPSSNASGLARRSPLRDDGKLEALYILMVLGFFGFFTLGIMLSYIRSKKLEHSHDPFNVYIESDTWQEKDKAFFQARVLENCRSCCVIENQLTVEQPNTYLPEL
Description: as §1, §2, §3, §4, §5

Description for atrial flutter: In this model, atrial flutter was induced following a Y-shaped surgical lesion comprised of an intercaval incision and a connecting incision across the right atrium. […] Bipolar electrodes also were sutured to the left ventricle for measurement of ventricular excitation threshold (VET) and ventricular relative (VRRP at 2× VET) and effective refractory periods (VERP at 10×VET). The following cardiac electrophysiologic parameters also were measured before test agent administration and at the termination of the study: AH interval, an index of AV nodal conduction; HV interval, an index of His-ventricular conduction time; P-A interval, an index of intra-atrial conduction; and H-EG interval, an index of ventricular conduction; and paced ECG QT interval. AV nodal functional refractory period (AVNFRP) and SA conduction time (SACT) were determined by the introduction of atrial extrastimuli during sinus rhythm, and the monitoring of ventricular response. Electrocardiographic intervals were determined during sinus rhythm; the rate-corrected ECG QTc interval was calculated as: QTc=QT (msec)/√R-R (sec).
Sustained atrial flutter was initiated in three dogs by electrical burst pacing (6-20 Hz) of the atria; atrial rates ranged from 440-530 cycles/min.

Structure (SMILES): CC1CCC(C(C)C)C(P(=O)(c2ccccc2)c2ccccc2)C1 (centres unmarked) [Compound D, (2-Isopropyl-5-methylcyclohexyl)diphenylphosphine oxide]
- inhibition at 3 µM [1]: 3%
- % Block (Guinea Pig Ventricle) IK1 [2]: 15%
- effect on ventricular function (atrial flutter; dog, in vivo): no indication of effect on ventricular function
- time to termination of atrial arrhythmia after test agent administration (atrial flutter; i.v. bolus 1 mg/kg (three dogs) or 10 mg/kg (fourth dog)): 10 to 120 s
- atrial rate during atrial flutter (atrial flutter; i.v. bolus 1 mg/kg (three dogs) or 10 mg/kg (fourth dog), initial rates 450-560 cycles/min): slowed atrial rate
- termination of atrial arrhythmia (atrial flutter; i.v. bolus 1 mg/kg, in three of four dogs): terminated the atrial arrhythmia
- termination of atrial arrhythmia (atrial flutter; i.v. bolus 10 mg/kg, in the fourth of four dogs): terminated the atrial arrhythmia
- inhibition at 3 µM [3]: 25%
